Source: ChEMBL document CHEMBL1201862, “PubChem BioAssay data set” (2004)
Calls of active or inactive are those of the source.

Tests used:
[1] = target: T1, NADPH oxidase 1 (Homo sapiens, UniProt Q9Y5S8); experiment: Luminescence-based cell-based dose response assay to identify inhibitors of NADPH oxidase 1 (NOX1).; assay type: functional
T1 sequence (Q9Y5S8 whole entry): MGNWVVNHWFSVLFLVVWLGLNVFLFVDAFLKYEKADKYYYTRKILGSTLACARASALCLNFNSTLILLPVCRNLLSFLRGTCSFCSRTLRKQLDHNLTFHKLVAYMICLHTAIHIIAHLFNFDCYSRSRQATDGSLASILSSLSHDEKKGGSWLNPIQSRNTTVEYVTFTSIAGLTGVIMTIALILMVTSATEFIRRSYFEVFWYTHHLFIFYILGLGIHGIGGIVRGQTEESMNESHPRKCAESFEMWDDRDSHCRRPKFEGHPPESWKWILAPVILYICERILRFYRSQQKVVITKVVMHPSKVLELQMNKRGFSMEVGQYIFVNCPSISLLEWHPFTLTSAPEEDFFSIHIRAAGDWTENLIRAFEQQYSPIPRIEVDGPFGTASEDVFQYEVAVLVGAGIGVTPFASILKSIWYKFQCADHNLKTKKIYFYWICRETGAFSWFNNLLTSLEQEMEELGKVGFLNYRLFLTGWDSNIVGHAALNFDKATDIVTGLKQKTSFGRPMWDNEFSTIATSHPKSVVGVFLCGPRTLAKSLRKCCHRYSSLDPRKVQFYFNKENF

[2] = target: T2, Rac GTPase-activating protein 1 (Homo sapiens, UniProt Q9H0H5); experiment: MgcRacGAP GTPase-activating activity inhibitors, confirmation, biochemical, ADP Hunter fluorescence, primary and confirmatory (AID 624330); assay type: functional
T2 sequence (Q9H0H5 whole entry): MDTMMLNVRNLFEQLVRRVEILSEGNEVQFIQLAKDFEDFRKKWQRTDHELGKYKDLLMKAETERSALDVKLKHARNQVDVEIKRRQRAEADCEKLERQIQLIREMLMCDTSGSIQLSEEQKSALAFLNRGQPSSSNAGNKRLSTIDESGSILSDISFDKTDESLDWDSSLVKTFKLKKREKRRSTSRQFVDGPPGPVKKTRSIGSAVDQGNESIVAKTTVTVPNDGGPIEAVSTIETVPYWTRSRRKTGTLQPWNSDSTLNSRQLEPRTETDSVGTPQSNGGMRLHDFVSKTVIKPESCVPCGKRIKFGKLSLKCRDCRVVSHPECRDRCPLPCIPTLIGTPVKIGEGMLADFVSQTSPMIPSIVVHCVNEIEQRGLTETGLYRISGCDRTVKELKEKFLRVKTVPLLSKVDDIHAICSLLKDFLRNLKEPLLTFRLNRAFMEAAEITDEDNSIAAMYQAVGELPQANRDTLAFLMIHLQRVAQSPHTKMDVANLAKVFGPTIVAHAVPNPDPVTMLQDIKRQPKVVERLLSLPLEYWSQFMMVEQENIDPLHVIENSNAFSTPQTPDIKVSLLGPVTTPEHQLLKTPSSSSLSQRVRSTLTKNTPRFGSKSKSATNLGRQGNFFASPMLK

[3] = target: T1, NADPH oxidase 1; assay type: functional, cell-based
[4] = target: T3, Small ubiquitin-related modifier 1 (Homo sapiens, UniProt P63165); experiment: inhibitors of SUMO1 peptide binding, dose response, biochemical, fluorescence polarization, uHTS hits (AID 624382); assay type: functional; conditions: read-out: IC50_Mean
[5] = target: Induced myeloid leukemia cell differentiation protein Mcl-1 (Homo sapiens, UniProt Q07820); experiment: MCL1-BIM BH3 interaction inhibitors, dose response, biochemical, fluorescence polarization, BIM-BH3 peptide, 1536-well (AID 2217)
[6] = target: T4, Genome polyprotein (Hepatitis C virus, UniProt Q2Q167); experiment: HCV core protein dimerization inhibitors, dose response, biochemical, TR-FRET (AID 2159); set-up: species or system Hepacivirus hominis;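 further: blocks dimerization of HCV core protein measured by TR-FRET between tagged core106 pairs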
[7] = target: Bcl-2-like protein 1 (Homo sapiens, UniProt Q07817); experiment: BCL-XL inhibitors, dose response, selectivity assay for MCL1 inhibitor project, biochemical, fluorescence polarization, 1536-well (AID 2218)
[8] = target: T4, Genome polyprotein; experiment: Late stage assay provider counterscreen results for the probe development effort to identify inhibitors of Hepatitis C Virus (HCV) core protein dimerization: Luminescence-based biochemical AlphaScreen assay to identify inhibitors of HCV core dimerization.; assay type: functional, Hepacivirus hominis
[9] = target: Albumin (Bos taurus, UniProt P02769); experiment: Counterscreen for inhibitors of T-cell receptor (TCR)-CD3 interaction: Fluorescence-based biochemical high throughput dose response assay to identify inhibitors of T-cell receptor (TCR)-CD3 interaction using a TAMRA-labeled BSA probe.; assay type: functional
[10] = target: T3, Small ubiquitin-related modifier 1; experiment: inhibitors of SUMO1 partner interactions, dose response, biochemical, FRET (AID 624383); assay type: functional; conditions: read-out: IC50_Mean
[11] = microbe, parasite or virus in culture; assay type: functional; conditions: Mycobacterium tuberculosis
[12] = A High Throughput Confirmatory Assay used to Identify Novel Compounds that Inhibit Mycobacterium Tuberculosis in the absence of Glycerol.; assay type: functional
[13] = target: Lytic switch protein BZLF1 (Epstein-Barr virus (strain B95-8) (HHV-4) (Human herpesvirus 4), UniProt P03206); experiment: EBV ZTA inhibitors, dose response, counter-screen for EBNA-1 inhibitor project, biochemical, fluorescence polarization, Epstein-Barr virus, 1536-well (AID 2377); set-up: species or system human gammaherpesvirus 4;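 further: fluorescence polarization of Cy5-labelled ZRE DNA probe bound by purified Zta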
[14] = target: Epstein-Barr nuclear antigen 1 (Epstein-Barr virus (strain B95-8) (HHV-4) (Human herpesvirus 4), UniProt P03211); experiment: EBNA-1 inhibitors, dose response, biochemical, fluorescence polarization, 1536-well (AID 2381); set-up: species or system human gammaherpesvirus 4;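 further: fluorescence polarization of a Cy5 DNA probe bound by EBNA-1 protein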
[15] = P. falciparum late gametocyte killing, dose response, luminescence (AID 1117278); assay type: functional, cell-based;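 further: gametocytes exposed to compound for 24 hours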
[16] = tested on: Streptococcus; experiment: Group A Streptococcus viability loss, dose response, counter-screen for streptokinase expression inhibitor project, luminescence, BacTiterGlo (AID 1915); assay type: functional, organism-based;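 further: potency for reduction of bacterial viability or growth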
[17] = tested on: Streptococcus sp. 'group A'; experiment: growth inhibition of control SK(-) GAS strain, dose response, counter-screen for streptokinase expression inhibitor project, luminescence, kanamycin, BacTiterGlo, confirmation (AID 1900); assay type: functional, organism-based
[18] = Absorbance Microorganism-Based Dose Response Follow up to Identify Inhibitors of Streptokinase Expression. [Related pubchem assays: 1677 (Project Summary), 1915, 1914, 1902 (Retest at Dose), 1900 (Counter Screen), 1662 (Primary HTS)]
[19] = tested on: Streptococcus; experiment: Luminescence Microorganism-Based Dose Response Follow up to Identify Compounds Cytotoxic to Streptococcus. [Related pubchem assays: 1677 (Project Summary), 1915, 1914, 1902 (Retest at Dose), 1900 (Counter Screen), 1662 (Primary HTS)]; assay type: functional, organism-based
[20] = target: Cytochrome P450 2C9 (Homo sapiens, UniProt P11712)
[21] = Jurkat T cell cytotoxicity, dose response, cytotoxicity control for P. falciparum gametocyte viability project, luminescence (AID 1117277); assay type: functional, cell-based;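 further: potency reflects loss of cellular ATP meaning fewer viable cells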
[22] = target: T5, Streptokinase A (Streptococcus pyogenes serotype M1, UniProt P10520); experiment: Absorbance Microorganism-Based Dose Response Follow up to Identify Inhibitors of Streptokinase Expression. [Related pubchem assays: 1677 (Project Summary), 1915, 1914, 1902 (Retest at Dose), 1900 (Counter Screen), 1662 (Primary HTS)]; assay type: functional, Streptococcus pyogenes M1 GAS
T5 sequence (P10520 whole entry): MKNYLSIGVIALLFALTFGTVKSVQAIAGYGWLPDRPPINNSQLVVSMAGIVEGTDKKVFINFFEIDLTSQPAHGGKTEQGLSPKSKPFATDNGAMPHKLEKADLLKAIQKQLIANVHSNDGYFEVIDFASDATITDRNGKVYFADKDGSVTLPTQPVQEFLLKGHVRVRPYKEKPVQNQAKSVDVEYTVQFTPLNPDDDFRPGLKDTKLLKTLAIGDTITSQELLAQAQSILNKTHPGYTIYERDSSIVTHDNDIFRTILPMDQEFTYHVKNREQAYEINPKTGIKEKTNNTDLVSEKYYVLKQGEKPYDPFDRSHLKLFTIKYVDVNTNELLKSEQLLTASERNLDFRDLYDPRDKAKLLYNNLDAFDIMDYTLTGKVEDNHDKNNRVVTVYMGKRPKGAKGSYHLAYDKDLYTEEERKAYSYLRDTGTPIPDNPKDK

[23] = target: T5, Streptokinase A; experiment: S. pyogenes streptokinase expression inhibitors, potency, dose response, plasminogen activation absorbance, OD405 (AID 1914); assay type: functional, Streptococcus pyogenes M1 GAS;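 further: secreted streptokinase activity via plasminogen activation per viability signal from cell pellet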

T4 sequence (Q2Q167 whole entry): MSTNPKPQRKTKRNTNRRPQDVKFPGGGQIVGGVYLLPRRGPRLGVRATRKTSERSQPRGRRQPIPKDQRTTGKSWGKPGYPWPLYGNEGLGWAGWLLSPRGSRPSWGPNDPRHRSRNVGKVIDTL
T3 sequence (P63165 whole entry): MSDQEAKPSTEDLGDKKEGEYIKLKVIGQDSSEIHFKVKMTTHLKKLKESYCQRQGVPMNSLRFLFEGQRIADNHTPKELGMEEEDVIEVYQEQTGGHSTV
Chain of Lytic switch protein BZLF1 (P03206 whole entry): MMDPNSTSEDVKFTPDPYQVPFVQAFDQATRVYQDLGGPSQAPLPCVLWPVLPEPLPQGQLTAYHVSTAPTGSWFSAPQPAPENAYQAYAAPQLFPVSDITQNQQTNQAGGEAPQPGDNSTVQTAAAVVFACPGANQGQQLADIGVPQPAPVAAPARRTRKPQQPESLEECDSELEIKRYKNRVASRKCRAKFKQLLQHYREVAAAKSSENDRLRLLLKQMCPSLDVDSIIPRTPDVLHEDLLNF
Chain of Albumin (P02769 whole entry): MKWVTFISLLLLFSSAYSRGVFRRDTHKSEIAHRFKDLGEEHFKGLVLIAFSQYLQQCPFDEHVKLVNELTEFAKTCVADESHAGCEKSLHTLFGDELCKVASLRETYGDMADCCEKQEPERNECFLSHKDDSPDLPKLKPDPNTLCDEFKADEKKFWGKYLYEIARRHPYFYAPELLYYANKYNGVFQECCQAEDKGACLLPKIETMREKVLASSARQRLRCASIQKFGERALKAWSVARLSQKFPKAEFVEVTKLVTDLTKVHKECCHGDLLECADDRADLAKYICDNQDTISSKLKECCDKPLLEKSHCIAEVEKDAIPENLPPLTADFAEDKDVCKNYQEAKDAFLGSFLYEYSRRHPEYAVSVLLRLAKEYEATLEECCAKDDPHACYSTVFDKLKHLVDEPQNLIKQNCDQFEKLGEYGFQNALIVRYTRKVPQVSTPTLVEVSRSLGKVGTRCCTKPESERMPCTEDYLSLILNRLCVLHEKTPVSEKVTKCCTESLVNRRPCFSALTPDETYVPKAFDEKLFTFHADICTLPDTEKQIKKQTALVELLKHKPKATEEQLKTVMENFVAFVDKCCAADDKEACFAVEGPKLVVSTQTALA
Chain of Epstein-Barr nuclear antigen 1 (P03211 whole entry): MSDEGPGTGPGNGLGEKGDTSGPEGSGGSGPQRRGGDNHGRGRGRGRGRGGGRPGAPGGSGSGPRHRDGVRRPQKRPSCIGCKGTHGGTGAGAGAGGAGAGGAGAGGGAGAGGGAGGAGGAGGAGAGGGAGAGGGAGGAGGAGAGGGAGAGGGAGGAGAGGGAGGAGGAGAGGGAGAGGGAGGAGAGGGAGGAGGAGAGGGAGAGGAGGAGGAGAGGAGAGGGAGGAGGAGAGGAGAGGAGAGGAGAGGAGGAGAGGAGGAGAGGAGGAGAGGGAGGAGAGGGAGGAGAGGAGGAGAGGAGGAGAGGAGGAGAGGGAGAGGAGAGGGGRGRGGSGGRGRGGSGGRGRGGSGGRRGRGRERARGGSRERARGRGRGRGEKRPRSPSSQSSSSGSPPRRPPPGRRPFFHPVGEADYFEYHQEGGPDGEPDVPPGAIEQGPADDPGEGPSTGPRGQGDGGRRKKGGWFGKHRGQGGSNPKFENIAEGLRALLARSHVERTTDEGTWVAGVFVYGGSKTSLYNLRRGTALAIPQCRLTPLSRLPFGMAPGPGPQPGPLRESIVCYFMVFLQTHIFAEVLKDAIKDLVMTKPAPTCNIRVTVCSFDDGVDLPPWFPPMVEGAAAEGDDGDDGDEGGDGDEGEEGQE
Chain of Bcl-2-like protein 1 (Q07817 whole entry): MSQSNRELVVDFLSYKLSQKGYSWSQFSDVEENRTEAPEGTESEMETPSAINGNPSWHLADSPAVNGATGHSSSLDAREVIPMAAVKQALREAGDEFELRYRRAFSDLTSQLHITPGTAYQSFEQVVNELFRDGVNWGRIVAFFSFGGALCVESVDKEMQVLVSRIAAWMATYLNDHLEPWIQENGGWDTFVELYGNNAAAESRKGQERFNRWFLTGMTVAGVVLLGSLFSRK
Chain of Induced myeloid leukemia cell differentiation protein Mcl-1 (Q07820 whole entry): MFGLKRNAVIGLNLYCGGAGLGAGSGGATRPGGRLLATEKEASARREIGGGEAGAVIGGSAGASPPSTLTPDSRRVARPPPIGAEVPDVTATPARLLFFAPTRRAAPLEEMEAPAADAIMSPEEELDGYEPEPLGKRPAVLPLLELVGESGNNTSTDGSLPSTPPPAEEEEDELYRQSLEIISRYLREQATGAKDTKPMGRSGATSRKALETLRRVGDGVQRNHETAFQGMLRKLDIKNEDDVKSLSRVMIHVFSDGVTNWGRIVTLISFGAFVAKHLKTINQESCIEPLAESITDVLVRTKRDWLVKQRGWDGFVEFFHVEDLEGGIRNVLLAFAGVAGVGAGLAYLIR
Chain of Cytochrome P450 2C9 (P11712 whole entry): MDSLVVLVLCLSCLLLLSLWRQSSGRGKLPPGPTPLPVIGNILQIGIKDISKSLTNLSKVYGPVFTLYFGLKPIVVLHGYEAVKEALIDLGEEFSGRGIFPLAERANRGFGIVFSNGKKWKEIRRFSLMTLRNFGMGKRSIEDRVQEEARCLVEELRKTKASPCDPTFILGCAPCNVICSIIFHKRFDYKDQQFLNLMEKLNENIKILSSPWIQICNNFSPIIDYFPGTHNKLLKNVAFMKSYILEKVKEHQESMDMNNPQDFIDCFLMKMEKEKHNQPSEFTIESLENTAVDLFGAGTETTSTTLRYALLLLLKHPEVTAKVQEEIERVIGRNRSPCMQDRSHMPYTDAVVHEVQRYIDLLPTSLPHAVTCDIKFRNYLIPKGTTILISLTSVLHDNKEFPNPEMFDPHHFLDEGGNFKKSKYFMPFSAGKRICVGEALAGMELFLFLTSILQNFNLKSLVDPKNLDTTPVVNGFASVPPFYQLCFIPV

SMILES: c1ccc2c(c1)Nc1ccccc1S2 [PHENOTHIAZINE]
- IC50 [1]: 0.349 µM (active)
- IC50 [2]: 18.5 µM (active)
- IC50 [3]: 0.369 µM (active)

SMILES: CCN(CC(=O)Nc1c(F)cccc1F)C(=O)/C=C/c1ccc2ccccc2n1
- IC50 [4]: > 66.6 µM (inactive)
- IC50 [5]: 3.46 µM (active)
- IC50 [6]: 16.7 µM (not active)
- IC50 [7]: 25.3 µM (not active)
- IC50 [8]: 29.8 µM (inactive)
- IC50 [9]: > 94.1 µM (inactive)
- IC50 [10]: 2.3 µM (active)

SMILES: COc1ccccc1NC(=O)Nc1nc(CC(=O)N2CCN(c3ccccc3F)CC2)cs1
- CC50 [11]: > 40 µM (active)
- IC50 [12]: > 100 µM (active)

SMILES: CC1=CC2=NC(=O)/C(=C\c3cn(C)c4ccccc34)C(=N)N2O1
- IC50 [13]: > 111 µM (not active)
- IC50 [14]: 8.61 µM (active)

SMILES: COc1ccc(Sc2ccc(NC(=O)c3ccccc3Cl)cc2C#N)cc1
- IC50 [15]: > 109 µM (inactive)
- EC50 [16]: > 150 µM (not active)
- EC50 [17]: 1.21 µM (active)
- EC50 [18]: 2.27 µM (active)
- EC50 [19]: > 500 µM (not active)
- AC50 [20]: 2.51 µM (inconclusive)
- IC50 [21]: > 9.26 µM (active)
- EC50 [22]: 3.14 µM (active)
- EC50 [23]: 4.98 µM (active)
